For 21 molecules, inhibition results are on record in patent US20250122182A1 (Isosterix, Inc., priority 2023, published 2025).

The target in the test is Recombinant KAT6A/MOZ (488-778) protein (Homo sapiens (Human), UniProt Q92794). The test can be described thus: KAT6A AlphaLISA Inhibition Screening Assay. The test is classed as biochemical. Conditions: for inhibition at 1 µM: read-out: Average Kat6A % inhibition @ 1 μM, 1 μM test compound; for inhibition at 10 µM: read-out: Average Kat6A % inhibition @ 10 μM, 10 μM test compound. How it is done: The Kat6a inhibitory activity of test compounds was determined using an Alpha Screen-based detection method. The assay reactions were conducted in a volume of 10 μL in Alpha Plate, White 384 well plate (cat #6008280, Perkin Elmer). The enzymatic reactions were performed in assay buffer pH 8.0 (50 mM Tris-HCl, 0.1 mM EDTA, 0.01% Tween-20, 1 mM Dithiothreitol, 0.1% BSA (fatty acid free) and 330 nM TSA (Trichostatin A)). 10 μL reaction volume consisting of 25 nM of Recombinant KAT6A/MOZ (488-778) protein (Active motif, Catalog #81223), 400 nM Acetyl coenzyme A (Catalog #A2056, Sigma), 200 nM of Histone H3 peptide [(amino acids 1-21), biotin-labeled (BPS Biosciences, Catalog #52011)]. Test compounds were screened at different doses starting with 10 μM, 3 fold dilution and 10 point Dose response curve. Enzyme and compounds solution were pre-incubated in assay plate for 60 or 10 min at room temperature then substrate and Acetyl coenzyme A solution were added to the plate. After addition, the plate was sealed with adhesive seals and incubated for 120 minutes at room temperature.
After 120 minutes of incubation, […] of AlphaLISA anti-acetyl-Lysine acceptor beads (Perkin Elmer, Catalog #AL143C) were added to the plate and it was incubated for 60 minutes at room temperature. Then […] of Alpha Streptavidin donor beads (Perkin Elmer, Catalog #6760002S) were added to the plate which was further incubated for 60 minutes at room temperature. After incubation, the alpha signal was recorded by using Perkin Elmer Envision multi-mode reader. Percent inhibition of enzyme activity by test compounds were determined relative to vehicle control.
Background: Bead proximity is the source of the signal in Alpha formats.

Sequence of Recombinant KAT6A/MOZ (488-778) protein (Q92794 488-778): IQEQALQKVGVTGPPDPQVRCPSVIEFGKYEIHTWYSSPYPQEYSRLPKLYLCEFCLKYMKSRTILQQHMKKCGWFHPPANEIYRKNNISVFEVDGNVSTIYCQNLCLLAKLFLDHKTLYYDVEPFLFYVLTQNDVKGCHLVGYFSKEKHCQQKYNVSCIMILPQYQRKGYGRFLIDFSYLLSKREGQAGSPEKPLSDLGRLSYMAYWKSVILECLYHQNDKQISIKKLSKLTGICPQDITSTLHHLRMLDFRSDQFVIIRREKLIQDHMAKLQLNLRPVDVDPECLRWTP

In general, inhibition refers to the percentage by which the read-out fell short of the control. For `CC#CC(=O)NCc1ccc(Oc2cc(OC)c3c(NS(=O)(=O)c4cc(CC)ccc4OC)noc3c2)nc1` [Syn. Ex. 57, N-((6-((3-((5-ethyl-2-methoxyphenyl)sulfonamido)-4-methoxybenzo[d]isoxazol-6-yl)oxy)pyridin-3-yl)methyl)but-2-ynamide], the inhibition at 1 µM came to 70% and the inhibition at 10 µM stood at 100%.

In the case of `CC#CC(=O)NCc1cnn(Cc2cc(OC)c3c(NS(=O)(=O)c4cc(OC)ccc4OC)noc3c2)c1` [Syn. Ex. 58, N-((1-((3-((2,5-dimethoxyphenyl)sulfonamido)-4-methoxybenzo[d]isoxazol-6-yl)methyl)-1H-pyrazol-4-yl)methyl)but-2-ynamide], the inhibition at 1 µM stood at 91% and the inhibition at 10 µM stood at 97%.

In the case of `C=C(F)C(=O)NCc1cnn(Cc2cc(OC)c3c(NS(=O)(=O)c4cc(C(C)C)ccc4OC)noc3c2)c1` [Syn. Ex. 59, 2-fluoro-N-((1-((3-((5-isopropyl-2-methoxyphenyl)sulfonamido)-4-methoxybenzo[d]isoxazol-6-yl)methyl)-1H-pyrazol-4-yl)methyl)acrylamide], the inhibition at 1 µM stood at 100% and the inhibition at 10 µM came to 100%.

For the molecule `C=C(F)C(=O)NCc1cnn(Cc2cc(OC)c3c(NS(=O)(=O)c4ccc(OC)cc4OC)noc3c2)c1` [Syn. Ex. 60, N-((1-((3-((2,4-dimethoxyphenyl)sulfonamido)-4-methoxybenzo[d]isoxazol-6-yl)methyl)-1H-pyrazol-4-yl)methyl)-2-fluoroacrylamide], the inhibition at 1 µM came to 93% and the inhibition at 10 µM is 100%.

Regarding `C#CC(=O)NCc1ccc(Oc2cc(OC)c3c(NS(=O)(=O)c4cc(CC)ccc4OC)noc3c2)nc1` [Syn. Ex. 61, N-((6-((3-((5-ethyl-2-methoxyphenyl)sulfonamido)-4-methoxybenzo[d]isoxazol-6-yl)oxy)pyridin-3-yl)methyl)propiolamide], the inhibition at 1 µM is 60% and the inhibition at 10 µM was 100%.

Turning to `CCc1ccc(OCC(=O)O)c(S(=O)(=O)Nc2noc3cc(Cn4cc(CNC(=O)OC)cn4)cc(OC)c23)c1` [Syn. Ex. 62, 2-(4-ethyl-2-(N-(4-methoxy-6-((4-(((methoxycarbonyl)amino)methyl)-1H-pyrazol-1-yl)methyl)benzo[d]isoxazol-3-yl)sulfamoyl)phenoxy)acetic acid], the inhibition at 1 µM was 100% and the inhibition at 10 µM amounted to 100%.

Consider `CCc1ccc(OC)c(S(=O)(=O)Nc2noc3cc(Cn4cc(CNC(=O)OC)cn4)cc(OC(F)F)c23)c1` [Syn. Ex. 63, methyl ((1-((4-(difluoromethoxy)-3-((5-ethyl-2-methoxyphenyl)sulfonamido)benzo[d]isoxazol-6-yl)methyl)-1H-pyrazol 4yl)methyl)carbamate], for which the inhibition at 1 µM stood at 95% and the inhibition at 10 µM came out at 96%.

For the molecule `CCc1ccc(OCCO)c(S(=O)(=O)Nc2noc3cc(Cn4cc(CNC(=O)OC)cn4)cc(OC)c23)c1` [Syn. Ex. 64, methyl ((1-((3-((5-ethyl-2-(2-hydroxyethoxy)phenyl)sulfonamido)-4-methoxybenzo[d]isoxazol-6-yl)methyl)-1H-pyrazol-4-yl)methyl)carbamate], the inhibition at 1 µM worked out at 94% and the inhibition at 10 µM worked out at 100%.

For `C#CC(=O)NCc1cnn(Cc2cc(OC)c3c(NS(=O)(=O)c4cc(CC)ccc4OCCO)noc3c2)c1` [Syn. Ex. 65, N-((1-((3-((5-ethyl-2-(2-hydroxyethoxy)phenyl)sulfonamido)-4-methoxybenzo[d]isoxazol-6-yl)methyl)-1H-pyrazol-4-yl)methyl)propiolamide], the inhibition at 1 µM is 100% and the inhibition at 10 µM came out at 100%.

Consider `CCc1ccc(OCC(=O)N2CCOCC2)c(S(=O)(=O)Nc2noc3cc(Cn4cc(CNC(=O)OC)cn4)cc(OC)c23)c1` [Syn. Ex. 66, methyl ((1-((3-((5-ethyl-2-(2-morpholino-2-oxoethoxy)phenyl)sulfonamido)-4-methoxybenzo[d]isoxazol-6-yl)methyl)-1H-pyrazol-4-yl)methyl)carbamate], for which the inhibition at 1 µM is 93% and the inhibition at 10 µM is 100%.

Take `C=C(F)C(=O)NCc1cnn(Cc2cc(OC)c3c(NS(=O)(=O)c4cc(CC)ccc4OCC(=O)O)noc3c2)c1` [Syn. Ex. 67, 2-(4-ethyl-2-(N-(6-((4-((2-fluoroacrylamido)methyl)-1H-pyrazol-1-yl)methyl)-4-methoxybenzo[d]isoxazol-3-yl)sulfamoyl)phenoxy)acetic acid]: the inhibition at 1 µM came out at 100% and the inhibition at 10 µM came to 100%.

For the molecule `C=C(F)C(=O)NCc1cnn(Cc2cc(OC)c3c(NS(=O)(=O)c4cc(CC)ccc4OCC(=O)N4CCOCC4)noc3c2)c1` [Syn. Ex. 68, N-((1-((3-((5-ethyl-2-(2-morpholino-2-oxoethoxy)phenyl)sulfonamido)-4-methoxybenzo[d]isoxazol-6-yl)methyl)-1H-pyrazol-4-yl)methyl)-2-fluoroacrylamide], the inhibition at 1 µM worked out at 96% and the inhibition at 10 µM is 100%.

For `C#CC(=O)NCc1cnn(Cc2cc(OC)c3c(NS(=O)(=O)c4cc(CC)ccc4OCC#N)noc3c2)c1` [Syn. Ex. 69, N-((1-((3-((2-(cyanomethoxy)-5-ethylphenyl)sulfonamido)-4-methoxybenzo[d]isoxazol-6-yl)methyl)-1H-pyrazol-4-yl)methyl)propiolamide], the inhibition at 1 µM amounted to 96% and the inhibition at 10 µM is 99%.

Consider `C#CC(=O)NCc1cnn(Cc2cc(OC)c3c(NS(=O)(=O)c4cc(CC)ccc4OCc4nn[nH]n4)noc3c2)c1` [Syn. Ex. 70, N-((1-((3-((2-((2H-tetrazol-5-yl)methoxy)-5-ethylphenyl)sulfonamido)-4-methoxybenzo[d]isoxazol-6-yl)methyl)-1H-pyrazol-4-yl)methyl)propiolamide], for which the inhibition at 1 µM turned out to be 100% and the inhibition at 10 µM turned out to be 100%.

Consider `CCc1ccc(OCc2nn[nH]n2)c(S(=O)(=O)Nc2noc3cc(Cn4cc(CNC(=O)OC)cn4)cc(OC)c23)c1` [Syn. Ex. 71, methyl ((1-((3-((2-((2H-tetrazol-5-yl)methoxy)-5-ethylphenyl)sulfonamido)-4-methoxybenzo[d]isoxazol-6-yl)methyl)-1H-pyrazol-4-yl)methyl)carbamate], for which the inhibition at 1 µM stood at 100% and the inhibition at 10 µM is 100%.

Regarding `C=C(F)C(=O)NCc1cnn(Cc2cc(OC)c3c(NS(=O)(=O)c4cc(CC)ccc4OCc4nn[nH]n4)noc3c2)c1` [Syn. Ex. 72, N-((1-((3-((2-((2H-tetrazol-5-yl)methoxy)-5-ethylphenyl)sulfonamido)-4-methoxybenzo[d]isoxazol-6-yl)methyl)-1H-pyrazol-4-yl)methyl)-2-fluoroacrylamide], the inhibition at 1 µM worked out at 100% and the inhibition at 10 µM was determined as 100%.

As for `C=C(F)C(=O)NCc1cnn(Cc2cc(OC)c3c(NS(=O)(=O)c4cc(CC)ccc4OCc4ncon4)noc3c2)c1` [Syn. Ex. 73, N-((1-((3-((2-((1,2,4-oxadiazol-3-yl)methoxy)-5-ethylphenyl)sulfonamido)-4-methoxybenzo[d]isoxazol-6-yl)methyl)-1H-pyrazol-4-yl)methyl)-2-fluoroacrylamide], the inhibition at 1 µM came to 100% and the inhibition at 10 µM was 100%.

Take `CCc1ccc(OCc2ncon2)c(S(=O)(=O)Nc2noc3cc(Cn4cc(CNC(=O)OC)cn4)cc(OC)c23)c1` [Syn. Ex. 74, methyl ((1-((3-((2-((1,2,4-oxadiazol-3-yl)methoxy)-5-ethylphenyl)sulfonamido)-4-methoxybenzo[d]isoxazol-6-yl)methyl)-1H-pyrazol-4-yl)methyl)carbamate]: the inhibition at 1 µM turned out to be 100% and the inhibition at 10 µM turned out to be 100%.

In the case of `CCc1ccc(OCCN)c(S(=O)(=O)Nc2noc3cc(Cn4cc(CNC(=O)OC)cn4)cc(OC)c23)c1` [Syn. Ex. 75, methyl ((1-((3-((2-(2-aminoethoxy)-5-ethylphenyl)sulfonamido)-4-methoxybenzo[d]isoxazol-6-yl)methyl)-1H-pyrazol-4-yl)methyl)carbamate], the inhibition at 1 µM stood at 59% and the inhibition at 10 µM stood at 92%.

Take `C=C(F)C(=O)NCc1cnn(Cc2cc(OC)c3c(NS(=O)(=O)c4cc(CC)ccc4OCCN)noc3c2)c1` [Syn. Ex. 76, N-((1-((3-((2-(2-aminoethoxy)-5-ethylphenyl)sulfonamido)-4-methoxybenzo[d]isoxazol-6-yl)methyl)-1H-pyrazol-4-yl)methyl)-2-fluoroacrylamide]: the inhibition at 1 µM turned out to be 74% and the inhibition at 10 µM came out at 96%.

`CCc1ccc(OCCN2CCOC2=O)c(S(=O)(=O)Nc2noc3cc(Cn4cc(CNC(=O)OC)cn4)cc(OC)c23)c1` [Syn. Ex. 77, methyl ((1-((3-((5-ethyl-2-(2-(2-oxooxazolidin-3-yl)ethoxy)phenyl)sulfonamido)-4-methoxybenzo[d]isoxazol-6-yl)methyl)-1H-pyrazol-4-yl)methyl)carbamate]: the inhibition at 1 µM is 96% and the inhibition at 10 µM worked out at 98%.
